Assay results: PMC12686454 (EMBO Molecular Medicine, 2025)
Structures can show the parent of a compound that is named as a salt.

Assays:
E. coli ATCC 25922 = system: T1, E. coli ATCC 25922; assay: microbe, parasite or virus in culture; set-up: Bacterial growth inhibition, OD600, dose-response in 384-well plates, AC50; settings: Escherichia coli, ATCC25922, 24 h
T1 construct: ATCC 25922
Description: (§1) EU-OPENSCREEN provided a subset of 2,464 bioactive compounds from the ECBL pilot library (EU-OPENSCREEN: European Chemical Biology Library - Pilot Library) as 10 mM stock solutions in 100% DMSO. The library was screened in duplicate at a final concentration of 100 μM per well (1% DMSO). The antibacterial single-concentration HTS and dose–response susceptibility assays were conducted in 384-well plates, with bacterial cell density measured by optical density at 600 nm (OD600). Compounds were distributed in duplicate on separate 384-well microtiter plates using an Echo 550® acoustic [compound left out] handler (Beckman Coulter™, Indianapolis, IN) and inoculated with bacteria to a final concentration of 10^6 CFU/mL, with a total assay volume of 25.25 μL. Plates were incubated with shaking for 24 h at 37 °C. Bacterial growth was measured by reading the OD600 using an EnVision™ microplate reader (Revvity, Waltham, MA). The activity of the compounds was expressed as the percentage of bacterial growth inhibition, and it was calculated using the following normalization: %Inhibition=100×1−(TfSample−TOSample)−(TfBlank−TOBlank)/(TfGrowth−TOGrowth)−(TfBlank−TOBlank) Where, T0 Sample is the absorbance of the strain growth in the presence of compound measured at time zero, Tf Sample is the absorbance of the strain growth in the presence of compound measured at final time, T0 Growth is the absorbance of the strain growth in the absence of compound measured at time zero, Tf Growth is the absorbance of the strain growth in the absence of compound measured at final time, T0 Blank is the absorbance of the broth medium (blank) measured at time zero, Tf Blank: the absorbance of the broth medium (blank) measured at final time; T0 is Time at 0 h and Tf is Time at 24 h. We developed and validated a high-throughput screen assay using 2464 bioactive compounds from the EU-OPENSCREEN pilot library, dispensed in 384-well plates at 100 μM final concentration, and the A. baumannii Ab ATCC 17978 and E. coli ATCC 25922 strains, as well as their respective MDR strains (Ab186 and MCR1^+) (Fig. 1A). We identified 33 compounds ([…] of the total compounds) with inhibitory activity of ≥70% against at least one or both MDR strains of Ab186 and E. coli MCR1^+. […] This compound was active against the Ab ATCC 17978 and E. coli ATCC 25922 strains, with AC50 values of 23.57 μM and 46.86 μM, respectively (Fig. 1C).

[1] = system: T2, A. baumannii Ab ATCC 17978; assay: microbe, parasite or virus in culture; set-up: species or system A. baumannii ATCC 17978; Bacterial growth inhibition, OD600, dose-response in 384-well plates, AC50; settings: Acinetobacter baumannii, ATCC17978, 24 h
T2 construct: ATCC 17978
Description: as §1

enolase (AbEnolase) = molecular target: T3, enolase (AbEnolase) (Acinetobacter baumannii, UniProt A3M5Y1); assay: isothermal titration calorimetry ([…] °C, […] protein, […] ENOblock, single-site model, n = […]); assay type: binding
T3 construct: gene eno; wild-type enolase gene in pET-30a(+) with an N-terminal His6 tag, purified recombinant
T3 sequence (A3M5Y1 whole entry): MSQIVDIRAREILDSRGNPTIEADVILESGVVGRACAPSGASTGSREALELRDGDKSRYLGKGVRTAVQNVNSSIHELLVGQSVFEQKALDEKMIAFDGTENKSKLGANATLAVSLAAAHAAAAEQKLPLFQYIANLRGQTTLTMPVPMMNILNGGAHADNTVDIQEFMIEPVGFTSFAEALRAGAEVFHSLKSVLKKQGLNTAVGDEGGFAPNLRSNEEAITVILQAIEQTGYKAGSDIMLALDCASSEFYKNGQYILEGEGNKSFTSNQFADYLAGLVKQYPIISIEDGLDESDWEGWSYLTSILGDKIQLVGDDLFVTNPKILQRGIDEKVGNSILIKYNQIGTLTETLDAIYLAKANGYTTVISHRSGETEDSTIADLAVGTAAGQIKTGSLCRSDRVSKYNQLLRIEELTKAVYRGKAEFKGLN

Compound | AC50 (E. coli ATCC 25922) | AC50 [1] | Kd (enolase (AbEnolase))
C/C(=N\N=C(N)N)c1cc(NC(=O)CCCCCCCCC(=O)Nc2cc(/C(C)=N/N=C(N)N)cc(/C(C)=N/N=C(N)N)c2)cc(/C(C)=N/N=C(N)N)c1 [EOS101827, SEMAPIMOD] | 7.07 µM | 23.2 µM | –
c1ccc2c(c1)[I+]c1ccccc1-2 [EOS101209, DIPHENYLENEIODONIUM] | 2.02 µM | 3.09 µM | –
NCCOCCOCCNC(=O)Cc1ccc(Nc2nc(NCc3ccc(F)cc3)nc(NCC3CCCCC3)n2)cc1 [ENOblock] | – | – | 2.9 ± 0.78 µM
COc1cc(NCc2ccc3nc(N)nc(N)c3c2C)cc(OC)c1OC [EOS101467, TRIMETREXATE] | 1.99 µM | 24.1 µM | –
COc1ccc(Cc2cnc(N)nc2N)cc1OC [EOS100884, DIAVERIDINE] | 1.26 µM | – | –
Cc1c2ccncc2c(C)c2c1[nH]c1ccccc12 [EOS100555, ELLIPTICINE] | 64 µM | 48.9 µM | –
CC(C)c1cccc(=O)c(O)c1 [EOS100813, HINOKITIOL] | 48.3 µM | 41 µM | –
Cc1ccc2c(Cl)cc(Cl)c(O)c2n1 [EOS100722, CHLORQUINALDOL] | 20.4 µM | 42.2 µM | –
[O-][n+]1ccccc1S [EOS101921, PYRITHIONE] | 17.8 µM | 33.9 µM | –
Oc1c(Cl)cc(Cl)c(Cl)c1Cc1c(O)c(Cl)cc(Cl)c1Cl [EOS100333, HEXACHLOROPHENE] | 37.3 µM | 4.77 µM | –
CC(C)(Cc1ccc2ccccc2c1)NC[C@@H](O)COc1cccc(Cl)c1C#N [EOS101044, NPS-2143] | 47.6 µM | 27.2 µM | –
COc1cc(/C=C/C(O)=C/C(=O)/C=C/c2ccc(O)cc2)ccc1O [EOS100220, DEMETHOXYCURCUMIN] | 56.1 µM | 51 µM | –
Cc1nc2c(=O)n(C)c(=O)nc-2n(C)n1 [EOS100293, 3-METHYLTOXOFLAVIN] | 9.33 µM | 14.3 µM | –
NCCOCCOCCNC(=O)Cc1ccc(Nc2nc(NCc3ccc(F)cc3)nc(NCC3CCCCC3)n2)cc1 [EOS100979, AP-III-A4(ENOBLOCK)] | 46.9 µM | 23.6 µM | –
C[C@H]1CO[C@@H]2Cn3cc(C(=O)NCc4ccc(F)cc4F)c(=O)c(O)c3C(=O)N12 [EOS100194, CABOTEGRAVIR] | – | 113 µM | –
c1ccc(-c2cccc(-c3ccccn3)n2)nc1 [EOS102213, TERPYRIDINE] | 52.3 µM | 13.1 µM | –

Compound | AC50 (E. coli ATCC 25922) | AC50 [1] | Kd (enolase (AbEnolase))
Oc1cccc2cccnc12 [EOS100874, OXYQUINOLINE] | 173 µM | 71.9 µM | –
CCc1nc(N)nc(N)c1-c1ccc(Cl)cc1 [EOS101458, PYRIMETHAMINE] | 129 µM | – | –
Oc1c(I)cc(I)c2cccnc12 [EOS100343, DIIODOHYDROXYQUINOLINE] | 55.1 µM | 62.8 µM | –
Cn1cc(C2=C(c3cn(CCCSC(=N)N)c4ccccc34)C(=O)NC2=O)c2ccccc21 [EOS101001, BISINDOLYLMALEIMIDE IX] | 109 µM | 48.9 µM | –
NC(=S)N/N=C/c1ncccc1N [EOS100248, TRIAPINE] | 101 µM | 65.7 µM | –
Oc1c(Cl)cc(Cl)cc1Sc1cc(Cl)cc(Cl)c1O [EOS101771, BITHIONOL] | 42.9 µM | 14.6 µM | –
CCN1/C(=C/c2ccc3ccccc3[n+]2CC)C=Cc2ccccc21 [EOS102018, DECYNIUM 22] | 92.9 µM | 54.3 µM | –
CC(C)C[C@H](NC(=O)[C@H](CCc1ccccc1)NC(=O)CN1CCOCC1)C(=O)N[C@@H](Cc1ccccc1)C(=O)N[C@@H](CC(C)C)C(=O)[C@@]1(C)CO1 [EOS101232, CARFILZOMIB] | 31.4 µM | – | –
CCN1CCN(C(c2ccc(C(F)(F)F)cc2)c2ccc3cccnc3c2O)CC1 (centres unmarked) [EOS100820, ML311] | 82.9 µM | 32.7 µM | –
O=[N+]([O-])c1ccc(Sc2cccc[n+]2[O-])c2nonc12 [EOS100077, NSC228155] | 19.1 µM | 32 µM | –
CN(C)c1ccc(C(=C2C=CC(=[N+](C)C)C=C2)c2ccc(N(C)C)cc2)cc1 [EOS102093, GENTIAN VIOLET] | – | 32.7 µM | –
O=S(=O)(NCCNC/C=C/c1ccc(Br)cc1)c1cccc2cnccc12 [EOS101763, H-89 DIHYDROCHLORIDE] | 65.9 µM | – | –
C[C@@H]1CCO[C@H]2Cn3cc(C(=O)NCc4ccc(F)cc4F)c(=O)c(O)c3C(=O)N12 [EOS101330, DOLUTEGRAVIR] | – | 21.9 µM | –
C=C1c2cccc(O)c2C(=O)C2=C(O)[C@]3(O)C(=O)C(C(N)=O)=C(O)[C@@H](N(C)C)[C@@H]3[C@@H](O)[C@H]12 [EOS100925, METHACYCLINE HYDROCHLORIDE] | 95 µM | – | –
Oc1c(Cl)cc(Cl)c2cccnc12 [EOS100951, CHLOROXINE] | 10.1 µM | 7.47 µM | –
